Assay results from patent US20240408169A1 (priority 2023, published 2024).
Like-named read-outs stand apart in the source and are kept apart here. *1 amine or outer side, *2 acyl side, *3 side chain or, on linkers, in order; H or OH if unused. Where a SMILES comes first, the peptide text is derived from it. Bridges are numbered along the chain shown (N, C = ends). [ ]: non-standard residue; d: D form. The star is where a group is joined. X138 = CN([C@@H](Cc1cc(Cl)ccc1-c1ccc(S(=O)(=O)N2CCCC2)cc1)C(=O)[*:2])[*:1]; X127 = CN([C@@H](Cc1cc(F)ccc1-c1cnn(S(=O)(=O)C2CC2)c1)C(=O)[*:2])[*:1]; X42 = CN([C@@H](Cc1cc(Cl)ccc1-c1cnn(S(=O)(=O)C2CC2)c1)C(=O)[*:2])[*:1]; X134 = CN([C@@H](Cc1cc(Cl)ccc1-c1cnc2[nH]c(O)cc2c1)C(=O)[*:2])[*:1]; X195 = CC(=O)Nc1ccc(-c2ccc(Cl)cc2C[C@@H](C(=O)[*:2])N(C)[*:1])cn1; X209 = CN([C@@H](Cc1cc(Cl)ccc1-c1cnc2nn(C)cc2c1)C(=O)[*:2])[*:1]; NMehhhLys(Me) = CN([C@@H](CCCCCCCN(C)[*:3])C(=O)[*:2])[*:1]; X174 = CN([C@@H](Cc1cc(Cl)cnc1-c1cnn(C)c1)C(=O)[*:2])[*:1]; X131 = CN([C@@H](Cc1cc(F)cnc1-c1cnn(C)c1)C(=O)[*:2])[*:1]; X176 = CN([C@@H](Cc1cc(F)ccc1-c1cccnc1)C(=O)[*:2])[*:1]; NMe(hhhLys) = CN([C@@H](CCCCCCCN[*:3])C(=O)[*:2])[*:1]; NMe3Pal(2-OMe,5-Cl) = CN[C@@H](Cc1cc(Cl)cnc1OC)C(=O)O; Oxane2carbonyl(2R-CF3) = O=C([C@@]1(C(F)(F)F)CCCCO1)*; Cyclobutanecarbonyl(1-CF3) = O=C(C1(C(F)(F)F)CCC1)*; cBuCO(3,3-F2-1-CF3) = O=C(C1(C(F)(F)F)CC(F)(F)C1)*; X25 = CCOc1ncc(Cl)cc1C[C@@H](C(=O)[*:2])N(C)[*:1]; X161 = Cc1ccc(F)cc1C[C@@H](C(=O)[*:2])N(C)[*:1]; X4 = Cc1ccc(Cl)cc1C[C@@H](C(=O)[*:2])N(C)[*:1]; Pro(trans-4-F) = O=C(O)[C@@H]1C[C@@H](F)CN1; Pivaloyl(3,3,3-F3) = CC(C)(C(=O)*)C(F)(F)F; Gly(cPr) = N[C@H](C(=O)O)C1CC1

How the values were obtained:
CyclinA2/CDK2 = molecular target: T1, CyclinA2/CDK2 (Homo sapiens, UniProt P20248); experiment: Fluorescence Polarization (FP) competitive binding assay, Cyclin A2/Cdk2;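 note: plates equilibrated two hours at room temperature before polarization reading, IC50 fitted from eight-concentration compound titration curves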
T1 construct: purchased CRELUX Protein Services

CyclinB1/CDK1 = molecular target: T2, CyclinB1/CDK1 (Homo sapiens, UniProt P14635); experiment: Fluorescence Polarization (FP) competitive binding assay, Cyclin B1/Cdk1;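 note: fluorescence polarization read after equilibration at room temperature, with IC50 taken from serially diluted dose-response curves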
T2 construct: purchased Eurofins, discovery 14-450

CyclinE1/CDK2 = molecular target: T3, CyclinE1/CDK2 (Homo sapiens, UniProt P24864); experiment: Fluorescence Polarization (FP) competitive binding assay, Cyclin E1/Cdk2;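 note: readings taken after two-hour equilibration at room temperature in HEPES buffer with NaCl, DTT, NP-40 and BSA, IC50 fitted from eight-concentration serial dilution series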
T3 construct: purchased Eurofins, discovery 14-475

NCI-H1048 cells = experiment: MTT proliferation assay, NCI-H1048; type: cell-based; details: 5 days compound exposure, 1:3 serial dilution starting at 10 μM;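 note: Dose-response in 96-well plates over 8 or 10 concentration points, with exposure spanning 3-4 cell doublings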
OVCAR3 cells = experiment: MTT proliferation assay, OVCAR3; type: cell-based; details: 5 days compound exposure, 1:3 serial dilution starting at 10 μM;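 note: compound given as an 8- or 10-point series, one day after plating, with exposure covering roughly 3-4 cell doublings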
[1] = read-out: Cyclin B FP IC50; 10 nM Cyclin B1/Cdk1, 2 nM FAM probe; average of 2-3 independent experiments
[2] = read-out: Cyclin A FP IC50, 8 nM Cyclin A2/Cdk2, 2 nM FAM probe, average of 2-3 independent experiments
[3] = 8 nM Cyclin A2/Cdk2, 2 nM FAM probe, average of 2-3 independent experiments, read-out: Cyclin A FP IC50
[4] = 10 nM Cyclin B1/Cdk1, 2 nM FAM probe; average of 2-3 independent experiments; read-out: Cyclin B FP IC50
[5] = 10 nM Cyclin E1/Cdk2, 2 nM FAM probe, average of 2-3 independent experiments, read-out: Cyclin E FP IC50

Compound | IC50 (CyclinA2/CDK2) [nM] | IC50 (CyclinB1/CDK1; [1]) [nM] | IC50 (CyclinE1/CDK2) [nM] | GI50 (NCI-H1048 cells) [nM] | GI50 (OVCAR3 cells) [nM] | IC50 (CyclinA2/CDK2; [2]) [nM] | IC50 (CyclinA2/CDK2; [3]) [nM] | IC50 (CyclinB1/CDK1; [4]) [nM] | IC50 (CyclinE1/CDK2; [5]) [nM]
CC(C)C[C@@H]1NC(=O)[C@@H](N(C)C(=O)[C@@H](NC(=O)[C@@H]2C[C@@H](F)CN2C(=O)C2(C(F)(F)F)CCC2)C2CC2)CCCCCCCN(C)C(=O)[C@H](Cc2cc(F)cnc2-c2cnn(C)c2)N(C)C1=O [Example 245] ({Cyclobutanecarbonyl(1-CF3)}-[Pro(trans-4-F)][Gly(cPr)][NMehhhLys(Me)]L[X131]; lactam 3-C) | 40 | 20 | 220 | 80 | 20 | – | – | – | –
CC(C)C[C@@H]1NC(=O)[C@@H](N(C)C(=O)[C@@H](NC(=O)[C@@H]2C[C@@H](F)CN2C(=O)C2(C(F)(F)F)CC(F)(F)C2)C2CC2)CCCCCCCN(C)C(=O)[C@H](Cc2cc(Cl)cnc2-c2cnn(C)c2)N(C)C1=O [Example 246] ({cBuCO(3,3-F2-1-CF3)}-[Pro(trans-4-F)][Gly(cPr)][NMehhhLys(Me)]L[X174]; lactam 3-C) | – | 20 | 640 | 30 | 10 | 20 | – | – | –
CC(C)C[C@@H]1NC(=O)[C@@H](N(C)C(=O)[C@@H](NC(=O)[C@@H]2C[C@@H](F)CN2C(=O)C2(C(F)(F)F)CCC2)C2CC2)CCCCCCCN(C)C(=O)[C@H](Cc2cc(Cl)cnc2-c2cnn(C)c2)N(C)C1=O [Example 247] ({Cyclobutanecarbonyl(1-CF3)}-[Pro(trans-4-F)][Gly(cPr)][NMehhhLys(Me)]L[X174]; lactam 3-C) | – | – | – | 50 | 40 | – | 20 | 20 | 310
CC(C)C[C@@H]1NC(=O)[C@@H](N(C)C(=O)[C@@H](NC(=O)[C@@H]2C[C@@H](F)CN2C(=O)[C@@]2(C(F)(F)F)CCCCO2)C2CC2)CCCCCCCN(C)C(=O)[C@H](Cc2cc(Cl)cnc2-c2cnn(C)c2)N(C)C1=O [Example 248] ({Oxane2carbonyl(2R-CF3)}-[Pro(trans-4-F)][Gly(cPr)][NMehhhLys(Me)]L[X174]; lactam 3-C) | – | 20 | 100 | 40 | 20 | 20 | – | – | –
CC(C)C[C@@H]1NC(=O)[C@@H](N(C)C(=O)[C@@H](NC(=O)[C@@H]2C[C@@H](F)CN2C(=O)C2(C(F)(F)F)CC(F)(F)C2)C2CC2)CCCCCCCN(C)C(=O)[C@H](Cc2cc(Cl)ccc2-c2cnc3nn(C)cc3c2)N(C)C1=O [Example 249] ({cBuCO(3,3-F2-1-CF3)}-[Pro(trans-4-F)][Gly(cPr)][NMehhhLys(Me)]L[X209]; lactam 3-C) | – | 20 | 590 | 10 | 10 | 20 | – | – | –
CC(C)C[C@@H]1NC(=O)[C@@H](N(C)C(=O)[C@@H](NC(=O)[C@@H]2C[C@@H](F)CN2C(=O)C2(C(F)(F)F)CC(F)(F)C2)C2CC2)CCCCCCCN(C)C(=O)[C@H](Cc2cc(F)ccc2-c2cnn(S(=O)(=O)C3CC3)c2)N(C)C1=O [Example 252] ({cBuCO(3,3-F2-1-CF3)}-[Pro(trans-4-F)][Gly(cPr)][NMehhhLys(Me)]L[X127]; lactam 3-C) | 30 | 20 | 380 | 10 | 20 | – | – | – | –
CC(C)C[C@@H]1NC(=O)[C@@H](N(C)C(=O)[C@@H](NC(=O)[C@@H]2C[C@@H](F)CN2C(=O)C2(C(F)(F)F)CC(F)(F)C2)C2CC2)CCCCCCCN(C)C(=O)[C@H](Cc2cc(Cl)ccc2-c2cnn(S(=O)(=O)C3CC3)c2)N(C)C1=O [Example 254] ({cBuCO(3,3-F2-1-CF3)}-[Pro(trans-4-F)][Gly(cPr)][NMehhhLys(Me)]L[X42]; lactam 3-C) | – | – | – | 20 | 20 | – | 30 | 20 | 970
Cc1ccc(Cl)cc1C[C@H]1C(=O)N(C)CCCCCCC[C@H](N(C)C(=O)[C@@H](NC(=O)[C@@H]2C[C@@H](F)CN2C(=O)C2(C(F)(F)F)CC(F)(F)C2)C2CC2)C(=O)N[C@@H](CC(C)C)C(=O)N1C [Example 263] ({cBuCO(3,3-F2-1-CF3)}-[Pro(trans-4-F)][Gly(cPr)][NMehhhLys(Me)]L[X4]; lactam 3-C) | – | – | – | 30 | 40 | – | 30 | 20 | 200
Cc1ccc(F)cc1C[C@H]1C(=O)NCCCCCCC[C@H](N(C)C(=O)[C@@H](NC(=O)[C@@H]2C[C@@H](F)CN2C(=O)C2(C(F)(F)F)CC(F)(F)C2)C2CC2)C(=O)N[C@@H](CC(C)C)C(=O)N1C [Example 264] ({cBuCO(3,3-F2-1-CF3)}-[Pro(trans-4-F)][Gly(cPr)][NMe(hhhLys)]L[X161]; lactam 3-C) | – | – | – | 40 | 30 | – | 90 | 20 | 290
CC(=O)Nc1ccc(-c2ccc(Cl)cc2C[C@H]2C(=O)N(C)CCCCCCC[C@H](N(C)C(=O)[C@@H](NC(=O)[C@@H]3C[C@@H](F)CN3C(=O)C3(C(F)(F)F)CC(F)(F)C3)C3CC3)C(=O)N[C@@H](CC(C)C)C(=O)N2C)cn1 [Example 265] ({cBuCO(3,3-F2-1-CF3)}-[Pro(trans-4-F)][Gly(cPr)][NMehhhLys(Me)]L[X195]; lactam 3-C) | – | – | – | 10 | 20 | – | 20 | 20 | 640
CC(C)C[C@@H]1NC(=O)[C@@H](N(C)C(=O)[C@@H](NC(=O)[C@@H]2C[C@@H](F)CN2C(=O)C2(C(F)(F)F)CC(F)(F)C2)C2CC2)CCCCCCCN(C)C(=O)[C@H](Cc2cc(Cl)ccc2-c2ccc(S(=O)(=O)N3CCCC3)cc2)N(C)C1=O [Example 266] ({cBuCO(3,3-F2-1-CF3)}-[Pro(trans-4-F)][Gly(cPr)][NMehhhLys(Me)]L[X138]; lactam 3-C) | – | – | – | 30 | 50 | – | 20 | 20 | 2220
CC(=O)N1CC=C(c2ccc(Cl)cc2C[C@H]2C(=O)NCCCC=CCC[C@H](N(C)C(=O)[C@@H](NC(=O)[C@@H]3C[C@@H](F)CN3C(=O)C3(C(F)(F)F)CC(F)(F)C3)C3CC3)C(=O)N[C@@H](CC(C)C)C(=O)N2C)CC1 [Example 267] | – | – | – | 50 | 40 | – | 20 | 20 | 1950
COc1ncc(Cl)cc1C[C@H]1C(=O)N(C)CCCCCCC[C@H](N(C)C(=O)[C@@H](NC(=O)[C@@H]2C[C@@H](F)CN2C(=O)C(C)(C)C(F)(F)F)C2CC2)C(=O)N[C@@H](CC(C)C)C(=O)N1C [Example 268] ({Pivaloyl(3,3,3-F3)}-[Pro(trans-4-F)][Gly(cPr)][NMehhhLys(Me)]L[NMe3Pal(2-OMe,5-Cl)]; lactam 3-C) | – | – | – | 20 | 10 | – | 60 | 20 | 100
CCOc1ncc(Cl)cc1C[C@H]1C(=O)N(C)CCCCCCC[C@H](N(C)C(=O)[C@@H](NC(=O)[C@@H]2C[C@@H](F)CN2C(=O)C(C)(C)C(F)(F)F)C2CC2)C(=O)N[C@@H](CC(C)C)C(=O)N1C [Example 269] ({Pivaloyl(3,3,3-F3)}-[Pro(trans-4-F)][Gly(cPr)][NMehhhLys(Me)]L[X25]; lactam 3-C) | – | – | – | 30 | 30 | – | 60 | 20 | 100
CC(C)C[C@@H]1NC(=O)[C@@H](N(C)C(=O)[C@@H](NC(=O)[C@@H]2C[C@@H](F)CN2C(=O)C2(C(F)(F)F)CC(F)(F)C2)C2CC2)CCCCCCCN(C)C(=O)[C@H](Cc2cc(F)ccc2-c2cccnc2)N(C)C1=O [Example 271] ({cBuCO(3,3-F2-1-CF3)}-[Pro(trans-4-F)][Gly(cPr)][NMehhhLys(Me)]L[X176]; lactam 3-C) | – | – | – | 10 | 10 | – | 30 | 20 | 240
CC(C)C[C@@H]1NC(=O)[C@@H](N(C)C(=O)[C@@H](NC(=O)[C@@H]2C[C@@H](F)CN2C(=O)C2(C(F)(F)F)CC(F)(F)C2)C2CC2)CCCCCCCN(C)C(=O)[C@H](Cc2cc(Cl)ccc2-c2cnc3[nH]c(O)cc3c2)N(C)C1=O [Example 272] ({cBuCO(3,3-F2-1-CF3)}-[Pro(trans-4-F)][Gly(cPr)][NMehhhLys(Me)]L[X134]; lactam 3-C) | – | – | – | 90 | 430 | – | 50 | 20 | 1600
CC(C)C[C@@H]1NC(=O)[C@@H](N(C)C(=O)[C@@H](NC(=O)[C@@H]2C[C@@H](F)CN2C(=O)C2(C(F)(F)F)CC(F)(F)C2)C2CC2)CCC=CCCCNC(=O)[C@H](Cc2cc(Cl)ccc2-c2cnn(S(C)(=O)=O)c2)N(C)C1=O [Example 273, (2S,4R)—N—((S)-2-(((3S,6S,9S)-3-(5-chloro-2-(1-(methylsulfonyl)-1H-pyrazol-4-yl)benzyl)-6-isobutyl-4-methyl-2,5,8-trioxo-1,4,7-triazacyclohexadec-12-en-9-yl)(methyl)amino)-1-cyclopropyl-2-oxoethyl)-1-(3,3-difluoro-1-(trifluoromethyl)cyclobutane-1-carbonyl)-4-fluoropyrrolidine-2-carboxamide] | – | – | – | 30 | 40 | – | 50 | 20 | 1940
COc1ncc(Cl)cc1C[C@H]1C(=O)NCCCCCCC[C@H](N(C)C(=O)[C@@H](NC(=O)[C@@H]2C[C@@H](F)CN2C(=O)C2(C(F)(F)F)CC(F)(F)C2)C2CC2)C(=O)N[C@@H](CC(C)C)C(=O)N1C [Example 275] ({cBuCO(3,3-F2-1-CF3)}-[Pro(trans-4-F)][Gly(cPr)][NMe(hhhLys)]L[NMe3Pal(2-OMe,5-Cl)]; lactam 3-C) | – | – | – | 10 | 10 | – | 50 | 20 | 230
